# From US9441012B2, “Fluorinated epoxyketone-based compounds and uses thereof as proteasome inhibitors” (FLUORINOV PHARMA INC., priority 2012, dated 2016)
# Key:
# Format in all cases: cell-based
# COLO 205 = test: NCI 60 human tumor cell line screen (SRB); settings: COLO 205 (Colon Cancer); 48 h
# Description: Representative compounds of Formula I were screened using the National Cancer Institute (NCI) screening panel, which consists of a panel of 60 different human tumor cell lines, representing leukemia [CCRF-CEM, HL-60 (TB), K-562, MOLT-4, SR], melanoma [LOX IMVI, MALME-3M, M14, SMDA-MB-435, SK-MEL-2, SK-MEL-28, SK-MEL-5, UACC-257 and UACC-62] and cancers of the lung [A549/ATCC, EKVX, HOP-62, HOP-93, NCI-H226, NCI-H23, NCI-H322M, NCI-H460], colon [COLO 205, HCT-116, HCT-15, HT29, KM12, SW-620], brain [SF-268, SF-295, SF-539, SNB-19, SNB-75, U251], ovary [IGROV1, OVCAR-3, OVCAR-4, OVCAR-5, OVCAR-8, NCI/ADR-RES, SK-OV-3], breast [MCF7, MDA-MB-231, BT-549, T-47D, MDA-MB-468], prostate [PC-3, DU-145], and renal[786-0, A498, ACHN, CAKI-1, RXF-393, SN12C, TK-10, UO-31] cancers.
# After 24 h, two plates of each cell line are fixed in situ with TCA, to represent a measurement of the cell population for each cell line at the time of drug addition (Tz). Experimental drugs are solubilised in dimethyl sulfoxide at 400-fold the desired final maximum test concentration and stored frozen prior to use. At the time of drug addition, an aliquot of frozen concentrate is thawed and diluted to twice the desired final maximum test concentration with complete medium containing 50 μg/ml gentamicin. Additional four, 10-fold or ½ log serial dilutions are made to provide a total of five drug concentrations plus control. Aliquots of 100 μl of these different drug dilutions are added to the appropriate microtiter wells already containing 100 μl of medium, resulting in the required final drug concentrations.
# Following drug addition, the plates are incubated for an additional 48 h at 37° C., 5% CO2, 95% air, and 100% relative humidity. For adherent cells, the assay is terminated by the addition of cold TCA (trichloroacetic acid). Cells are fixed in situ by the gentle addition of 50 μl of cold 50% (w/v) TCA (final concentration, 10% TCA) and incubated for 60 minutes at 4° C. The supernatant is discarded, and the plates are washed five times with tap water and air dried. Sulforhodamine B (SRB) solution (100 μl) at 0.4% (w/v) in 1% acetic acid is added to each well, and plates are incubated for 10 minutes at room temperature. After staining, unbound dye is removed by washing five times with 1% acetic acid and the plates are air dried. Bound stain is subsequently solubilised with 10 mM trizma base, and the absorbance is read on an automated plate reader at a wavelength of 515 nm. For suspension cells, the methodology is the same except that the assay is terminated by fixing settled cells at the bottom of the wells by gently adding 50 μl of 80% TCA (final concentration, 16% TCA). Using the seven absorbance measurements [time zero, (Tz), control growth, (C), and test growth in the presence of drug at the five concentration levels (Ti)], the percentage growth is calculated at each of the drug concentration levels. Percentage growth inhibition is calculated as: [(Ti−Tz)/(C−Tz)]×100 for concentrations in which Ti>/=Tz and [(Ti−Tz)/Tz]×100 for concentrations in which Ti<Tz.
# Three dose response parameters are calculated for each experimental agent. Growth inhibition of 50% (GI50) is calculated from [(Ti−Tz)/(C−Tz)]100=50, which is the drug concentration resulting in a 50% reduction in the net protein increase (as measured by SRB staining) in control cells during the drug incubation. The drug concentration resulting in total growth inhibition (TGI) is calculated from Ti=Tz. The LC50 (concentration of drug resulting in a 50% reduction in the measured protein at the end of the drug treatment as compared to that at the beginning) indicating a net loss of cells following treatment is calculated from [(Ti−Tz)/Tz]×100=−50. Values are calculated for each of these three parameters if the level of activity is reached. However, if the effect is not reached or is exceeded, the value for that parameter is expressed as greater or less than the maximum or minimum concentration tested.
# SR = test: NCI 60 human tumor cell line screen (SRB); settings: SR (Leukemia); 48 h
# NCI-H460 = test: NCI 60 human tumor cell line screen (SRB); settings: NCI-H460 (Non-Small Cell Lung Cancer); 48 h
# SN12C = test: NCI 60 human tumor cell line screen (SRB); settings: SN12C (Renal Cancer); 48 h
# KMS-11 = test: Cell viability assay (MTS); settings: Homo sapiens, 72 hours, mean ± standard deviation
# Experimental: (§1) Human multiple myeloma cell lines 8226, H929, JJN3, KMH11, KMS11, KMS18, LP1, MM1S, OPM2 and U266 were grown in Iscove modified Dulbecco's medium (IMDM). Human leukemia cell lines K562, OCI-AML2 and U937 were cultured in RPMI-1640 medium. Primary peripheral blood mononuclear cells were isolated from multiple myeloma patients by Ficoll density gradient centrifugation and bone marrow aspirates were obtained from multiple myeloma patients at the Princess Margaret Cancer Centre of the University Health Network (UHN; Toronto, ON, Canada). Primary cells were cultured in IMDM. The collection and use of human tissue for this study were approved by the UHN institutional ethics review board. All cell culture media were obtained from the Ontario Cancer Institute Tissue Culture Media Facility (Toronto, ON, Canada) and were supplemented with 10% fetal calf serum, […] (Hyclone, Logan, Utah). All cells were grown in a humidified incubator at 37° C. with 5% CO2.
# (§2) Cellular viability was primarily assessed by 3-(4,5-dimethylthiazol-2-yl)-5-(3-carboxymethoxyphenyl)-2-(4-sulfophenyl)-2H-tetrazolium (MTS) assay according to the manufacturer's instructions (Promega; Madison, Wis.). Cells were first seeded at a density of 10,000 cells per well in tissue culture-treated 96-well plates. Two hours after seeding, cells were treated with compounds for 72 hours at concentrations as indicated. As a control, cells were treated with DMSO alone in every assay plate. Following treatment and the MTS assay, cell viability was independently confirmed by reading the optical density (O.D.) at 490 nm and by exclusion of trypan blue stain (Invitrogen; Burlington, ON, Canada). The viability of primary mononuclear cells was determined by staining with Annexin V.
# (§3) Table 9 summarizes data obtained for representative compounds of Formula I for cell viability and CT-L proteasome activity using OCI-AML-2 and KMS-11 cell lines.
# OCI-AML-2 = test: Cell viability assay (MTS); settings: Homo sapiens, OCI-AML2, 72 hours, mean ± standard deviation
# Experimental: as §1, §2, §3
Structure (SMILES),Log10GI50 (COLO 205),Log10LC50 (COLO 205),Log10TGI50 (COLO 205),Log10GI50 (SR),Log10LC50 (SR),Log10TGI50 (SR),Log10GI50 (NCI-H460),Log10LC50 (NCI-H460),Log10TGI50 (NCI-H460),Log10GI50 (SN12C),Log10LC50 (SN12C),Log10TGI50 (SN12C),IC50 (KMS-11) [nM],IC50 (OCI-AML-2) [nM]
"Cc1ncc(C(=O)N[C@@H](COC(F)F)C(=O)N[C@@H](COC(F)F)C(=O)N[C@@H](Cc2ccccc2)C(=O)[C@@]2(C)CO2)s1 [Example 1, 2-methyl-thiazole-5-carboxylic acid ((S)-1-{(S)-1-[(S)-1-benzyl-2-((R)-2-methyloxiranyl)-2-oxo-ethylcarbamoyl]-2-difluoromethoxyethylcarbamoyl}-2-difluoromethoxyethyl)-amide]",−6.22,>−4.00,−4.85,−7.30,>−4.00,>−4.00,−6.48,−5.12,−5.84,−6.54,−4.03,−5.29,30.9 ± 10.7,109 ± 25.3
"CC(C)C[C@H](NC(=O)[C@H](Cc1ccccc1)NC(=O)[C@H](COC(F)F)NC(=O)CN1CCOCC1)C(=O)[C@@]1(C)CO1 [Example 25, (2S)-2-[[(2S)-3-(difluoromethoxy)-2-[(2-morpholinoacetyl)amino]propanoyl]amino]-N-[(1S)-3-methyl-1-[(2R)-2-methyloxirane-2-carbonyl]butyl]-3-phenyl-propanamide]",−7.39,−6.21,−6.76,−7.71,>−4.00,>−4.00,−7.21,−4.13,−6.43,−7.39,−5.15,−6.67,39.5 ± 7.45,55.6 ± 19.2
"C[C@]1(C(=O)[C@H](Cc2ccccc2)NC(=O)[C@H](COC(F)F)NC(=O)[C@H](COC(F)F)NC(=O)CN2CCOCC2)CO1 [Example 26, (S)-N-{(S)-1-[(S)-1-Benzyl-2-((R)-2-methyl-oxiranyl)-2-oxo-ethylcarbamoyl]-2-difluoromethoxyethyl}-3-difluoromethoxy-2-(2-morpholin-4-yl-acetylamino)-propio-namide]",−7.39,−6.21,−6.76,−7.71,>−4.00,>−4.00,−7.21,−4.13,−6.43,−7.39,−5.15,−6.67,99.7 ± 17.7,223 ± 10.3
C[C@]1(C(=O)[C@H](Cc2ccccc2)NC(=O)[C@H](Cc2ccccc2)NC(=O)[C@H](COC(F)F)NC(=O)CN2CCOCC2)CO1 [Example 29],−6.90,−5.34,−6.32,−7.69,>−4.00,−4.36,−6.49,>−4.00,−5.87,−6.92,−4.39,−6.38,60.4 ± 11.2,75.9 ± 15
